In series [1] the target is ELAM-1 (Homo sapiens, UniProt P16581). Kind of series: cell-based. The procedure:
Cell adhesion to ELAM-1 was measured essentially as described previously (Pal et al., J. Biomed. Res. 2: 53, 1992). Undifferentiated HL-60 leukemia cells were prelabelled for 30 minutes with 1 μM calcein AM in DPBS without calcium or magnesium, and the cells were washed twice with the same medium before addition to 96-well plates containing monolayers of mouse L cells (5×10^4 cells/well) transfected with cDNA for the adhesion molecule ELAM-1. Adhesion was allowed to proceed for 30 minutes at room temperature before washing and quantitation of the remaining fluorescent HL-60 cells as described above.
ELAM-1 (E-selectin) is a member of the selectin class of adhesion molecules.

Series [2] concerns TBZ-induced ptosis. Kind of series: Effects on tetrabenazine (TBZ)-induced ptosis in mice. It is filed as in vivo, mouse. The note with it: Mus musculus, po. The gist of the method:
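Mice dosed p.o. with test compound and challenged with tetrabenazine; blockade of TBZ-induced ptosis scored per the cited Nodine and Moyer procedure. Values are ED50 in mg/kg.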

Series [3] has as its system M27 murine lung carcinoma cell adhesion to fibronectin. Kind of series: M27 lung carcinoma cell adhesion to fibronectin. Type of series: cell-based. The note with it: Mus musculus; read-out: M27 FN IC50. The procedure: Adhesion assays were run essentially as described previously (Pai et al., J. Biomed. Res. 2: 53, 1992). 96-well plates were coated with human fibronectin (140 ng/well), human vitronectin (75 ng/well), human collagen I (100 ng/well), human collagen IV (100 ng/well), human fibrinogen (1 μg/well), murine laminin (600 ng/well), or polylysine, and incubated overnight in a humidified 37° C. incubator. Excess fibronectin or other substrate was then removed and 0.2 ml of 2 mg/ml bovine serum albumin (BSA)in Dulbecco's phosphate-buffered saline (DPBS) was added to each well, incubated for 2 hours at 37° C., and removed. LOX human melanoma cells, M27 murine lung carcinoma cells or B16F10 mouse melanoma cells were detached from tissue culture flasks with RPMI medium containing 0.2M urea and 10 mM EDTA, and 0.18 ml of cells were added to each well to a final cell concentration of 1×10^5 cells/well. For inhibition studies 20 μl of 10× compound was added to the wells prior to cell addition. Cells were allowed to adhere for 1 hour at 37° C. The wells were then gently washed twice with 0.2 ml DPBS. The fluorescent dye calcein AM (Molecular Probes, Eugene Oreg.) in DPBS (0.1 ml of 1 μM) was added to each well, and the plates were incubated for 1 hour at room temperature. Adherent cells were quantitated by reading the fluorescence on a Cytofluor 2300 fluorescent plate reader (Millipore) at 485 nm excitation and 530 nm emission.

The subject of series [4] is methamphetamine toxicity. Kind of series: Methamphetamine toxicity test in mice. The note with it: Mus musculus, read-out: METHA ED50. Type of series: in vivo. The method, then:
The methamphetamine toxicity test in mice was carried out as described in Burn et al, Arch. Int. Pharmacodyn 113:290-295, (1958); and Coscia et al, Arzneim-Forsch (Drug Research) 25:1436-1442, (1975); which are hereby incorporated by reference.
The results for this test are given below as ED50's in the units of mg/kg.
METHA refers to the methamphetamine toxicity test in mice;

The test system of series [5] is LOX human melanoma cell adhesion to polylysine. Kind of series: LOX melanoma cell adhesion to polylysine. It is filed as cell-based. The note with it: read-out: Poly Lys IC50.
In series [6] the test system is B16-F10 murine melanoma metastasis. Kind of series: In vivo experimental metastasis. Set-up: species or system mouse (C57/black6). The note with it: 150 mpk i.p. The method, then:
C57/black6 female mice (6-7 weeks old) were randomized before any treatment into groups of 5 mice per treatment. Compounds of the invention were prepared as a fine suspension in 25% β-cyclodextran and administered i.p. in a volume of 0.2 ml per animal. Two hours after drug (or vehicle) injection, 0.2 ml of DPBS containing 1×10^5 B-16 F10 murine melanoma cells were injected i.v. into the tail vein. After 14 days, animals were sacrificed and lungs were removed. Metastatic lung colonies were counted by visual inspection.
*Pretreatment Time is the time between i.p. drug injection and i.v. tumor

The nature of series [7]: Calcein cytotoxicity assay. Type of series: cell-based. The note with it: human, lox melanoma cells; for CC50 at 2 h / CC50 at 6 h: calcein AM assay; for CC50 at 2 h: read-out: 2 Hr Tox LD50; for CC50 at 6 h: read-out: 6 Hr Tox LD50.
Series [8] concerns histamine-induced dyspnea. Kind of series: Bronchodilator (in vivo) Guinea Pig Dyspnea. The note with it: oral, one hour before histamine challenge. The method, boiled down:
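Fasted, unanesthetized guinea pigs (250-350 g) received the test drug orally one hour before exposure to an aerosolized 0.1% histamine solution. Onset of dyspnea was recorded, and data were expressed as number tested over number survived.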

The structures appear in SMILES notation.

Chain of ELAM-1 (P16581 22-610): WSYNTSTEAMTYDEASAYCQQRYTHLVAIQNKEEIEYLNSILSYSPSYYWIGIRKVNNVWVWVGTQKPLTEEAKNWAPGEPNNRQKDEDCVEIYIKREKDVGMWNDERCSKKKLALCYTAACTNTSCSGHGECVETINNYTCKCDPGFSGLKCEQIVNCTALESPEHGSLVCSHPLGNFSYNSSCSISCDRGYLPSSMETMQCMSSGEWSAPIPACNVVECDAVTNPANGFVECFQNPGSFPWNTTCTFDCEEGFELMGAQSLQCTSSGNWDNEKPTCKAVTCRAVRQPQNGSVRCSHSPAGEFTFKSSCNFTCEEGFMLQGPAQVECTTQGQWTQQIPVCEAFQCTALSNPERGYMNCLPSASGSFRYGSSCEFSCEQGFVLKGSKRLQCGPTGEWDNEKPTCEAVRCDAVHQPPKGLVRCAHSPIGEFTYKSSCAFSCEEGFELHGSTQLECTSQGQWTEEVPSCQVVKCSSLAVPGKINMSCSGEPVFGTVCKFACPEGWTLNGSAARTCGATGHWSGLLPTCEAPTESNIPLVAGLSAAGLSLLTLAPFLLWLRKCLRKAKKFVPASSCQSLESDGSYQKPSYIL

Take `COc1ccc(C2=C3CC4CCC(N4)C3c3ccccc32)cc1` (centres unmarked) [Compound B]: the values for the half-inhibitory concentration (IC50) in series [1], in series [3] and in series [5] were greater than 50 µM, 17.1 µM and 22.3 µM, respectively. Moreover, the median effective dose (ED50) is 12 mg/kg in series [2] and greater than 30 mg/kg in series [4]. The “inhibition of in vivo metastasis relative to vehicle control” value in series [6] (2 hours before i.v. injection of melanoma) is on record as 73%. For the same compound, the “% Inhibition of lung metastasis” value in series [6] (pretreatment time 30 min) was 55.7%; in series [6] (pretreatment time 120 min), 72.5%. For the same compound, the “Number of Lung Melanoma Colonies” value worked out at 35.2 ± 13.9 in series [6] (pretreatment time 30 min) and 21.8 ± 2.0 in series [6] (pretreatment time 120 min). Further, the CC50 at 2 h in series [7] (2 hours) was 74.5 µM. In addition, the selectivity ratio at 2 h in series [7] (2 hours, calcein AM, read-out: selectivity for blockade of fibronectin adhesion vs. cytotoxicity (2 Hour Tox)) is 15. The CC50 at 6 h in series [7] (6 hours) is 24.6 µM. Also, in series [7] (6 hours, calcein AM, read-out: selectivity for blockade of invasion vs. cytotoxicity (6 Hour Tox)), the selectivity ratio at 6 h is greater than 61. The responders at 100 mg/kg in series [8] (Cavia porcellus, 1 h, 100 mg/kg, read-out: DYSP survivors (converted)) was 0%.
As to `CN1C2CCC1C1C(=C(c3ccc(Cl)cc3)c3ccccc31)C2` (centres unmarked) [C], the IC50 is greater than 50 µM in series [1], 13.7 µM in series [3] and 248 µM in series [5]. For the same compound, the CC50 at 2 h in series [7] (2 hours) was 85.3 µM. Further, the CC50 at 6 h in series [7] (6 hours) is 22.5 µM. Also, in series [8] (100 mg/kg), the DYSP survivors is given as 0/3.
For the compound `Cc1ccc(C2=C3CC4CCC(C3c3ccccc32)N4C)cc1` (centres unmarked) [J], the values for the concentration for half-maximal inhibition (IC50) in series [1], in series [3] and in series [5] were greater than 50 µM, 17.9 µM and 53.2 µM, respectively. Further, in series [7] (2 hours), the CC50 at 2 h was 58.4 µM. Besides, the CC50 at 6 h in series [7] (6 hours) was 30.6 µM. The DYSP survivors in series [8] (10 mg/kg) is recorded as 0/3; in series [8] (50 mg/kg), 1/3; in series [8] (100 mg/kg), 3/3.

For orientation: IC50 means the concentration that inhibits the measured activity by half. What is called ED50 is the midpoint of the dose-response relation.
